Test [1] has as its target T1, BRAFV600E full-length (amino acids 2-766) (Homo sapiens, UniProt P15056, V600E).
T1 construct: His6-tagged BRAFV600E full-length (amino acids 2-766); His6; made in house; host or cells: baculovirus expression system (insect cells)
Nature of the test: B-Raf Accelerated MEK ATPase assay (BRAMA). Format: biochemical. The note with it: categorized. Summed up: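 Coupled-enzyme readout: ADP generated by MEK-mediated ATP hydrolysis, uncoupled from ERK phosphorylation, is linked to NADH oxidation through pyruvate kinase and lactate dehydrogenase.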

The test system of test [2] is Human colon tumor cells (Colo205). Nature of the test: Cell growth inhibition assay (CellTiter-Glo), Colo205. The test is classed as cell-based. The gist of the method:
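Luminescent ATP read-out (CellTiter-Glo) served as a proxy for cell number; percent growth inhibition was calculated against DMSO vehicle wells. Cells were treated for 3 days at 37 °C with serially diluted compound, 0.2% DMSO final.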
For orientation: Cellular ATP, detected with luciferase, serves as a proxy for viable cell number.

Test [3] relates to Human melanoma cancer cells (SK-MEL-28). The test can be described thus: Cell growth inhibition assay (CellTiter-Glo), SK-MEL-28. The test is classed as cell-based.
[4] abbreviates: B-Raf Activity, Table 1a, highest pIC50 for the one or more runs.
Setting [5] is: B-Raf pIC50, Table 1b, later runs, average pIC50 for the one or more runs.
Setting [6] is: COLO 205, 72 h, Table 2a, 3 days incubation, read-out: Activity in Colo205 Tumor Cells.
Setting [7] is: COLO 205, Table 2b, later runs, average for the one or more runs, categorized, read-out: IC50 for Colo205.
Where [8] appears, read: SK-MEL-28, 72 h, Table 3a, 3 days incubation, read-out: Activity in SK-MEL-28 Tumor Cells.
Setting [9] is: SK-MEL-28, Table 3b, later runs, average for the one or more runs, categorized, read-out: IC50 for SK-MEL-28.
Setting [10] is: Table 1b, later runs, average pIC50 for the one or more runs, read-out: B-Raf pIC50 (converted).

Structures can show the parent of a compound that is named as a salt. Where two headings read alike, the source gives them in different places.

T1 sequence (P15056 2-766 V600E): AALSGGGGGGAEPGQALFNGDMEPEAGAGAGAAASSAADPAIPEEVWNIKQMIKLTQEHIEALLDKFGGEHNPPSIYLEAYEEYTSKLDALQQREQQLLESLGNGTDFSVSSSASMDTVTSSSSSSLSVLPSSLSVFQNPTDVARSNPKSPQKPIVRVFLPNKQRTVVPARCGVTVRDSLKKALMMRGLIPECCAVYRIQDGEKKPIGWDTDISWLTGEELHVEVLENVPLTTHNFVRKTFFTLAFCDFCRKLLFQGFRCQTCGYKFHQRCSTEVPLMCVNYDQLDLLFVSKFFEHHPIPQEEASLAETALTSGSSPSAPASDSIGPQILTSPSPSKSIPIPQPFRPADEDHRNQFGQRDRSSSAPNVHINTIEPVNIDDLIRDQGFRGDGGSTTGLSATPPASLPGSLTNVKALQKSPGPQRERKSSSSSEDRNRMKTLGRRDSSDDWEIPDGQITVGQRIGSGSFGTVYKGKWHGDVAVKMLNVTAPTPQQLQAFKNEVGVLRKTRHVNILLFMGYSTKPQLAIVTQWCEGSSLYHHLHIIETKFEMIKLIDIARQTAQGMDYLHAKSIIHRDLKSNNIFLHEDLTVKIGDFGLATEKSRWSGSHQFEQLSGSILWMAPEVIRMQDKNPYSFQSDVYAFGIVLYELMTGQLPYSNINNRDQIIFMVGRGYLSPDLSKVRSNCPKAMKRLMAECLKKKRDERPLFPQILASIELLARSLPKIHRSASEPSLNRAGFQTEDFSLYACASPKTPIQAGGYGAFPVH

On to `O=S(=O)(Nc1cccc(-c2nc(N3CCOCC3)sc2-c2ccnc(NCC3CCCO3)n2)c1F)c1cc(F)ccc1F` (centres unmarked) [Example 209], for which the IC50 was below 100 nM in test [1] (setting [4]); at most 3.16 nM in test [1] (setting [5]); below 100 nM in test [2] (setting [6]); below 100 nM in test [2] (setting [7]); below 100 nM in test [3] (setting [8]); below 100 nM in test [3] (setting [9]).

Turning to `Nc1nccc(-c2sc(C3CCOCC3)nc2-c2cccc(NS(=O)(=O)c3cc(F)ccc3F)c2Cl)n1` [Example 242, N-{3-[5-(2-amino-4-pyrimidinyl)-2-(tetrahydro-2H-pyran-4-yl)-1,3-thiazol-4-yl]-2-chlorophenyl}-2,5-difluorobenzenesulfonamide], the values for the IC50 in test [1] (setting [5]), in test [2] (setting [7]) and in test [3] (setting [9]) were at most 3.16 nM, below 100 nM and below 100 nM, respectively.

Consider `CC(C)c1nc(-c2cccc(NS(=O)(=O)c3cnn(C)c3)c2)c(-c2ccnc(NCCS(C)(=O)=O)n2)s1` [Example 35, 1-Methyl-N-{3-[2-(1-methylethyl)-5-(2-{[2-(methylsulfonyl)ethyl]amino}-4-pyrimidinyl)-1,3-thiazol-4-yl]phenyl}-1H-pyrazole-4-sulfonamide trifluoroacetic acid salt], for which the IC50 in test [1] (setting [4]) was below 100 nM; in test [1] (setting [10]), 3.16 to 31.6 nM; in test [2] (setting [6]) it was 100 to 1000 nM; in test [2] (setting [7]), 100 to 1000 nM; in test [3] (setting [8]) it was 100 to 1000 nM; in test [3] (setting [9]), 100 to 1000 nM.

Regarding `Nc1nccc(-c2sc(C3CCOCC3)nc2-c2cccc(NS(=O)(=O)c3cc(F)ccc3F)c2F)n1` [Example 245, N-{3-[5-(2-amino-4-pyrimidinyl)-2-(tetrahydro-2H-pyran-4-yl)-1,3-thiazol-4-yl]-2-fluorophenyl}-2,5-difluorobenzenesulfonamide], the IC50 in test [1] (setting [5]) is at most 3.16 nM; in test [2] (setting [7]) it was below 100 nM; in test [3] (setting [9]), below 100 nM.

`Nc1nccc(-c2sc(C3CCCCC3)nc2-c2cccc(NS(=O)(=O)c3c(F)cccc3F)c2F)n1` [Example 104, N-{3-[5-(2-Amino-4-pyrimidinyl)-2-cyclohexyl-1,3-thiazol-4-yl]-2-fluorophenyl}-2,6-difluorobenzenesulfonamide]: the IC50 in test [1] (setting [4]) is below 100 nM; in test [1] (setting [5]) it was at most 3.16 nM; in test [2] (setting [6]) it was below 100 nM; in test [2] (setting [7]), below 100 nM; in test [3] (setting [8]), below 100 nM; in test [3] (setting [9]) it was below 100 nM.

As for `CCOCCNc1nccc(-c2sc(C(C)C)nc2-c2ccc(F)c(NS(=O)(=O)c3c(F)cccc3F)c2)n1` [Example 4, N-{5-[5-(2-{[2-(Ethyloxy)ethyl]amino}-4-pyrimidinyl)-2-(1-methylethyl)-1,3-thiazol-4-yl]-2-fluorophenyl}-2,6-difluorobenzenesulfonamide], the IC50 in test [1] (setting [4]) was below 100 nM; in test [1] (setting [5]), 31.6 to 1000 nM; in test [2] (setting [6]) it was 100 to 1000 nM; in test [2] (setting [7]), 1000 to 10000 nM; in test [3] (setting [8]), 100 to 1000 nM; in test [3] (setting [9]) it was 100 to 1000 nM.

Turning to `CC(C)CNc1nccc(-c2sc(N(C)C)nc2-c2cccc(NS(=O)(=O)c3c(F)cccc3F)c2)n1` [Example 113, N-[3-(2-(Dimethylamino)-5-{2-[(2-methylpropyl)amino]-4-pyrimidinyl}-1,3-thiazol-4-yl)phenyl]-2,6-difluorobenzenesulfonamide], the IC50 was below 100 nM in test [1] (setting [4]), 31.6 to 1000 nM in test [1] (setting [5]), 100 to 1000 nM in test [2] (setting [7]) and 100 to 1000 nM in test [3] (setting [9]).

`CC(C)CNc1nccc(-c2sc(C(C)(C)C)nc2-c2cccc(NS(=O)(=O)c3c(F)cccc3F)c2F)n1` [Example 134]: the IC50 was below 100 nM in test [1] (setting [4]); 3.16 to 31.6 nM in test [1] (setting [10]); 100 to 1000 nM in test [2] (setting [6]); 100 to 1000 nM in test [2] (setting [7]); 100 to 1000 nM in test [3] (setting [8]); 100 to 1000 nM in test [3] (setting [9]).

For `CC(C)(C)c1nc(-c2cccc(NS(=O)(=O)c3c(F)cccc3F)c2F)c(-c2ccnc(CCCO)n2)s1` [Example 247, N-(3-{2-(1,1-dimethylethyl)-5-[2-(3-hydroxypropyl)-4-pyrimidinyl]-1,3-thiazol-4-yl}-2-fluorophenyl)-2,6-difluorobenzenesulfonamide], the IC50 in test [1] (setting [10]) is 3.16 to 31.6 nM; in test [2] (setting [7]), below 100 nM; in test [3] (setting [9]) it was below 100 nM.

As to `CC(C)CNc1nccc(-c2sc(N3CCOCC3)nc2-c2cccc(NS(=O)(=O)c3ccco3)c2F)n1` [Example 43, N-{2-fluoro-3-[5-{2-[(2-methylpropyl)amino]-4-pyrimidinyl}-2-(4-morpholinyl)-1,3-thiazol-4-yl]phenyl}-2-furansulfonamide], the IC50 in test [1] (setting [4]) is below 100 nM; in test [1] (setting [5]), at most 3.16 nM; in test [2] (setting [6]), 100 to 1000 nM; in test [2] (setting [7]), 100 to 1000 nM; in test [3] (setting [8]), 100 to 1000 nM; in test [3] (setting [9]) it was 100 to 1000 nM.

As for `Cc1nccc(-c2sc(C(C)(C)C)nc2-c2cccc(NS(=O)(=O)c3cc(F)ccc3F)c2Cl)n1` [Example 229, N-{2-chloro-3-[2-(1,1-dimethylethyl)-5-(2-methyl-4-pyrimidinyl)-1,3-thiazol-4-yl]phenyl}-2,5-difluorobenzenesulfonamide], the IC50 in test [1] (setting [10]) is 3.16 to 31.6 nM; in test [2] (setting [7]), below 100 nM; in test [3] (setting [9]), below 100 nM.

Regarding `CC(C)(C)c1nc(-c2cccc(NS(=O)(=O)c3ccccc3F)c2F)c(-c2ccncn2)s1` [Example 224, N-{3-[2-(1,1-dimethylethyl)-5-(4-pyrimidinyl)-1,3-thiazol-4-yl]-2-fluorophenyl}-2-fluorobenzenesulfonamide], the IC50 in test [1] (setting [5]) was at most 3.16 nM; in test [2] (setting [7]), below 100 nM; in test [3] (setting [9]), below 100 nM.

For `COc1c(NS(=O)(=O)c2c(F)cccc2F)cccc1-c1nc(N2CCOCC2)sc1-c1ccnc(NCC(C)C)n1` [Example 47, 2,6-Difluoro-N-{2-(methyloxy)-3-[5-{2-[(2-methylpropyl)amino]-4-pyrimidinyl}-2-(4-morpholinyl)-1,3-thiazol-4-yl]phenyl}benzenesulfonamide], the IC50 is below 100 nM in test [1] (setting [4]); 3.16 to 31.6 nM in test [1] (setting [10]); 100 to 1000 nM in test [2] (setting [6]); 100 to 1000 nM in test [2] (setting [7]); 100 to 1000 nM in test [3] (setting [8]); 100 to 1000 nM in test [3] (setting [9]).

On to `Nc1nccc(-c2sc(N3CCOCC3)nc2-c2cccc(NS(=O)(=O)c3ccco3)c2F)n1` [Example 62, N-{3-[5-(2-Amino-4-pyrimidinyl)-2-(4-morpholinyl)-1,3-thiazol-4-yl]-2-fluorophenyl}-2-furansulfonamide], for which the IC50 in test [1] (setting [4]) is below 100 nM; in test [1] (setting [5]) it was at most 3.16 nM; in test [2] (setting [6]), 100 to 1000 nM; in test [2] (setting [7]), 100 to 1000 nM; in test [3] (setting [8]) it was 100 to 1000 nM; in test [3] (setting [9]) it was 100 to 1000 nM.

Consider `CS(=O)(=O)N1CCC(Nc2nccc(-c3sc(N4CCOCC4)nc3-c3cccc(NS(=O)(=O)c4c(F)cccc4F)c3F)n2)CC1` [Example 79, 2,6-Difluoro-N-{2-fluoro-3-[5-(2-{[1-(methylsulfonyl)-4-piperidinyl]amino}-4-pyrimidinyl)-2-(4-morpholinyl)-1,3-thiazol-4-yl]phenyl}benzenesulfonamide], for which the IC50 in test [1] (setting [4]) is below 100 nM; in test [1] (setting [5]) it was at most 3.16 nM; in test [2] (setting [6]), below 100 nM; in test [2] (setting [7]), below 100 nM; in test [3] (setting [8]) it was below 100 nM; in test [3] (setting [9]) it was below 100 nM.

For the compound `Cc1ccc(F)c(S(=O)(=O)Nc2cccc(-c3nc(C(C)(C)C)sc3-c3ccnc(N)n3)c2F)c1` [Example 145], the IC50 in test [1] (setting [4]) is below 100 nM; in test [1] (setting [5]), 31.6 to 1000 nM; in test [2] (setting [6]), 100 to 1000 nM; in test [2] (setting [7]), 100 to 1000 nM; in test [3] (setting [8]) it was 100 to 1000 nM; in test [3] (setting [9]), 100 to 1000 nM.

Turning to `CC(C)CNc1nccc(-c2sc(N3CCOCC3)nc2-c2cccc(NS(=O)(=O)c3cc(F)ccc3F)c2Cl)n1` [Example 22, N-{2-Chloro-3-[5-{2-[(2-methylpropyl)amino]-4-pyrimidinyl}-2-(4-morpholinyl)-1,3-thiazol-4-yl]phenyl}-2,5-difluorobenzenesulfonamide], the IC50 in test [1] (setting [4]) was below 100 nM; in test [1] (setting [10]) it was 3.16 to 31.6 nM; in test [2] (setting [6]), below 100 nM; in test [2] (setting [7]), below 100 nM; in test [3] (setting [8]), below 100 nM; in test [3] (setting [9]), below 100 nM.

With `Nc1nccc(-c2sc(N3CCOCC3)nc2-c2cccc(NS(=O)(=O)c3ccoc3)c2Cl)n1` [Example 266, N-{3-[5-(2-amino-4-pyrimidinyl)-2-(4-morpholinyl)-1,3-thiazol-4-yl]-2-chlorophenyl}-3-furansulfonamide], the IC50 in test [1] (setting [5]) is at most 3.16 nM; in test [2] (setting [7]) it was below 100 nM; in test [3] (setting [9]) it was below 100 nM.

On to `CC(C)(C)c1nc(-c2cccc(NS(=O)(=O)c3cc(F)ccc3F)c2F)c(-c2ccnc(CCN3CCS(=O)(=O)CC3)n2)s1` [Example 216], for which the IC50 was below 100 nM in test [1] (setting [4]), 3.16 to 31.6 nM in test [1] (setting [10]), below 100 nM in test [2] (setting [7]) and below 100 nM in test [3] (setting [9]).

With `CC(C)(C)c1nc(-c2cccc(NS(=O)(=O)c3ccccc3F)c2F)c(-c2ccnc(N)n2)s1` [Example 54, N-{3-[5-(2-Amino-4-pyrimidinyl)-2-(1,1-dimethylethyl)-1,3-thiazol-4-yl]-2-fluorophenyl}-2-fluorobenzenesulfonamide], the IC50 is below 100 nM in test [1] (setting [4]); at most 3.16 nM in test [1] (setting [5]); below 100 nM in test [2] (setting [6]); below 100 nM in test [2] (setting [7]); below 100 nM in test [3] (setting [8]); below 100 nM in test [3] (setting [9]).
